Data published in the supplement of paper PMC10307832.

Key:
Experiment in all cases: relative viability (nuclei count vs DMSO), 5 days (fraction); higher = more cells survive
[1] = compound: N=C1NC(=O)/C(=C/c2ccc(O)cc2)S1 [Mirin] + CS(=O)(=O)CCNCc1ccc(-c2ccc3ncnc(Nc4ccc(OCc5cccc(F)c5)c(Cl)c4)c3c2)o1 [Lapatinib] (partner 2 µM)
Procedure, shortened: (§1)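 Dosing by pin tool came one day after lung cancer cell lines were seeded in 1536-well plates, using either one drug or a fixed anchor-drug dose plus five library-drug doses (not always all listed) in √10 steps. After 5 days, nuclei were counted on 4× images. Relative viability is treated-well nuclei count divided by vehicle-well nuclei count, and values are medians of duplicate plates.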

[2] = compound: N=C1NC(=O)/C(=C/c2ccc(O)cc2)S1 [Mirin] + COc1cc2c(Oc3ccc(NC(=O)C4(C(=O)Nc5ccc(F)cc5)CC4)cc3F)ccnc2cc1OCCCN1CCOCC1 [Foretinib] (partner 0.25 µM)
Procedure, shortened: as §1

[3] = compound: CCn1c(-c2nonc2N)nc2cnc(Oc3cccc(NC(=O)c4ccc(OCCN5CCOCC5)cc4)c3)cc21 + CC(C)C[C@H](NC(=O)[C@H](Cc1ccccc1)NC(=O)c1cnccn1)B(O)O [Bortezomib] (partner 0.002 µM)
Procedure, shortened: as §1

[4] = compound: N=C1NC(=O)/C(=C/c2ccc(O)cc2)S1 [Mirin] + C[C@@H](Oc1cc(-c2cnn(C3CCNCC3)c2)cnc1N)c1c(Cl)ccc(F)c1Cl [Crizotinib] (partner 1 µM)
Procedure, shortened: as §1

Cell Line	relative viability ([1]; first compound 0.25 µM)	relative viability ([1]; first compound 0.7906 µM)	relative viability ([1]; first compound 2.5 µM)	relative viability ([1]; first compound 7.906 µM)	relative viability ([1]; first compound 25 µM)	relative viability ([2]; first compound 0.25 µM)	relative viability ([2]; first compound 0.7906 µM)	relative viability ([2]; first compound 2.5 µM)	relative viability ([2]; first compound 7.906 µM)	relative viability ([2]; first compound 25 µM)	relative viability ([3]; first compound 0.04 µM)	relative viability ([3]; first compound 0.1265 µM)	relative viability ([3]; first compound 0.4 µM)	relative viability ([3]; first compound 1.265 µM)	relative viability ([3]; first compound 4 µM)	relative viability ([4]; first compound 0.25 µM)	relative viability ([4]; first compound 0.7906 µM)	relative viability ([4]; first compound 2.5 µM)	relative viability ([4]; first compound 7.906 µM)	relative viability ([4]; first compound 25 µM)
NCI-H2228	0.88	1	1.51	1.12	0.921	0.689	0.883	0.974	1.1	0.752	1.12	0.897	0.921	0.591	0.839	0.481	0.474	0.462	0.469	0.488
NCI-H1734	1.02	0.906	1.06	0.941	0.905	0.847	0.739	0.788	0.849	0.702	0.889	0.837	0.511	0.412	0.35	0.626	0.669	0.607	0.663	0.524
A-427	1.12		1.17	1.05	1.08	1.06		1.07	1.05	0.607	1.16	0.952	0.892	0.946	0.475	0.87		0.809	0.881	0.958
SK-LU-1	0.974	0.88	0.792	0.788	0.541	0.801	0.924	0.863	0.728	0.731	1.5	0.921	0.608		0.504	0.888	1.05	1.01	0.765	0.564
NCI-H838	1.15	0.454	1.07	0.898	0.658	1.05	1.08	1.08	1	0.852	0.729	0.397	0.319	0.385	0.31	0.895	0.918	0.834	0.906	0.681
LCLC-97TM1	1.04	0.594	0.857	0.867	1	0.762	0.848	0.89	0.991	0.703	0.662	0.896	0.397		0.247	0.316	0.317	0.259	0.218	0.233
BEN	0.507	0.942	0.721	0.656	0.457	0.567	0.654	0.68	0.552	0.386	0.747	0.655	0.321	0.306	0.303	0.855	0.753	1.01	0.82	0.43
NCI-H2023	1.08	0.301	0.752	0.876	0.585	0.806	0.837	0.993	0.894	0.919	1.25	0.918	0.621	0.504	0.394	0.658	0.665	0.585	0.692	0.567
LC-2-ad	0.967	1.03	0.947	0.783	0.98	0.97	1	0.988	0.907	0.759	1.1	0.936	0.756	0.448	0.281	0.493	0.518	0.466		0.254
ABC-1	1.04	1.33	1.17	1.16	0.95	1.35	1.08	0.971	1.03	0.587	0.483	0.302	0.262	0.256	0.285	0.993	1.09	0.866	0.918	0.664
NCI-H650	0.943		0.902		1.02	0.834	1.07	1.06		1.13	1.14	0.631	0.349	0.295	0.374	0.726		0.656		0.673
NCI-H1755	1.03	0.951	1.05	1.11	1.18	1	0.918	0.963	0.931	1.05	0.97	0.781	0.649	0.533	0.512	0.829	0.892	0.851	0.931	1.02
EPLC-272H	0.9		0.886	0.83	0.664	0.744		0.602	0.519	0.306	1.02	1.21	0.841	0.645	0.783	0.83		0.853	0.671	0.779
NCI-H1437	0.912	0.741	0.776	0.762	0.394	1.31	1.31	1.22	1.2	1.19	0.518	0.427	0.514	0.499	0.364	0.9	0.936	0.744	0.898	0.774
EKVX	0.213	0.192	0.23	0.215	0.256	0.757	0.73	0.848	0.735	0.932	1.22	1.05	0.902	0.932	1.02	0.839	0.811	1.1	0.947	1.1
NCI-H1651	0.882	0.832	0.938	0.711	0.824	0.814	0.845	0.773	0.678	0.69	0.9	0.94	0.824	0.496	0.86	0.827	0.875	0.849	0.877	0.821
HCC-15	0.874	0.546	0.9	0.803	0.79	1.1	1	1.06	0.819	0.882	1.2	0.992	0.882	0.757	0.913	0.841	0.866	0.888	0.803	0.802
